Test results: patent publication US20100311714A1, “1H-IMIDAZO[4,5-c]QUINOLINONE COMPOUNDS” (priority 2009, published 2010)
pIC50: −log10 of the molar value. Like-named read-outs stand apart in the source and are kept apart here.

Key:
[1] = system: PKB Ser473 phosphorylation in Rat1-myr-HA-p110 beta cells; assay: Reverse protein array, PKB Ser473 phosphorylation in Rat1-myr-HA-p110 beta cells; assay type: cell-based; details: Rattus norvegicus, 0.5 h, 30 minutes compound incubation, read-out: p-PKB/IC50_beta
mTOR = target: T1, mTOR (Homo sapiens, UniProt P42345); assay: Biochemical assay for m-TOR by TR-FRET
T1 construct: purchased Invitrogen Corporation (Carlsbad/Calif., USA) PV4753
Summary of the method: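 mTOR (0.5 nM) phosphorylates GFP-4EBP1 (400 nM) with 8 μM ATP at rt in 50 mM HEPES pH 7.5, 10 mM MnCl2, 50 mM NaCl, 1 mM EGTA, 1 mM DTT; compounds 0.003–10 μM final. EDTA stop with Tb-anti-p4EBP1[pT46] antibody (0.5 nM); TR-FRET read after 15 min against no-enzyme and vehicle controls.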

[2] = Parallel Artificial Membrane Permeability Assay (PAMPA) at pH 6.8; assay type: physicochemical
Summary of the method: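 Reported as log Pe, membrane permeability was determined by parallel artificial membrane assay at pH 6.8 per Wohnsland–Faller.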

T1 sequence (P42345 1360-2549 limits assumed): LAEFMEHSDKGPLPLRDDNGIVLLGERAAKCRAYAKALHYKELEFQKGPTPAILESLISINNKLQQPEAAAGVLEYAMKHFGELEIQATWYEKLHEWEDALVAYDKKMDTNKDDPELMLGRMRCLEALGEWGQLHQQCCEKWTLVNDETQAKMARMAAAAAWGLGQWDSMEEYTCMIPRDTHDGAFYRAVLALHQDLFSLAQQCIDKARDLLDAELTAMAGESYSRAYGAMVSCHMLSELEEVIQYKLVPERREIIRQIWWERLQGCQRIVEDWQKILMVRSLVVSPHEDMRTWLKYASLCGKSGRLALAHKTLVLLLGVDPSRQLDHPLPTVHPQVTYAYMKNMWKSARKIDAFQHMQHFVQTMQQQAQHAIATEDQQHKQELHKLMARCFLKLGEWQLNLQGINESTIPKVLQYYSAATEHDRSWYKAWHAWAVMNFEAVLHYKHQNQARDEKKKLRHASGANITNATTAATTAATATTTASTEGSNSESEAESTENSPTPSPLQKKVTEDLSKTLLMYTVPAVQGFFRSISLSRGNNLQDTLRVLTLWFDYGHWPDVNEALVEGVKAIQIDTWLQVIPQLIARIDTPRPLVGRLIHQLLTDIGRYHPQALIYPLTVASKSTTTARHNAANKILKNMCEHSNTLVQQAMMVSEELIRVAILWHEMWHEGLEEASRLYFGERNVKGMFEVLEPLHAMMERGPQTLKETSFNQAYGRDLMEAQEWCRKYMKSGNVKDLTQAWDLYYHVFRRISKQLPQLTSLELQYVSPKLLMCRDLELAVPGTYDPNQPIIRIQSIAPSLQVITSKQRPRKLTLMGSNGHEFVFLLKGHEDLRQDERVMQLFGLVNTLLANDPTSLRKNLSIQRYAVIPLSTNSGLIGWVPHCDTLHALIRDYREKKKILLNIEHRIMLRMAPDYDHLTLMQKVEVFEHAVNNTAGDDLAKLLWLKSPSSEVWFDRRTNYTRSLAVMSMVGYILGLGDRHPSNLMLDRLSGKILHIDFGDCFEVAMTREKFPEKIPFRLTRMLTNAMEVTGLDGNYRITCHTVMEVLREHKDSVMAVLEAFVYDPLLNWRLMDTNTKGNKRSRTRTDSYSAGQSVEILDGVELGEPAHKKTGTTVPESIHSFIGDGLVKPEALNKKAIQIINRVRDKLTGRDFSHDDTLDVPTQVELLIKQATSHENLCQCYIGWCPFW

Compound | pIC50 [1] | pIC50 (mTOR; read-out: EPK_mTOR/IC50) | HT-Perm logPe pH6.8 [2] | pIC50 (mTOR; read-out: mTOR/IC50) | HT-perm/logPe pH6.8 [2]
CNc1ncc(-c2ccc3ncc4c(c3c2)n(-c2ccc(F)nc2C)c(=O)n4C)cc1C(F)(F)F [Example 7.13, 1-(6-Fluoro-2-methyl-pyridin-3-yl)-3-methyl-8-(6-methylamino-5-trifluoromethyl-pyridin-3-yl)-1,3-dihydro-imidazo[4,5-c]quinolin-2-one] | 8.12 | 7.17 | −3.7 | – | –
COc1ncccc1-n1c(=O)n(C)c2cnc3ccc(-c4ccc(F)nc4)cc3c21 [Example 1.8, 8-(6-Fluoro-pyridin-3-yl)-1-(2-methoxy-pyridin-3-yl)-3-methyl-1,3-dihydro-imidazo[4,5-c]quinolin-2-one] | 6.49 | – | – | 7.06 | −3.7
Cc1cccnc1-n1c(=O)n(C)c2cnc3ccc(-c4cnc5ccccc5c4)cc3c21 [Example 3.8, 3-Methyl-1-(3-methyl-pyridin-2-yl)-8-quinolin-3-yl-1,3-dihydro-imidazo[4,5-c]quinolin-2-one] | 6.97 | – | – | 6.26 | −3.9
COc1ccc(-c2ccc3ncc4c(c3c2)n(-c2cccnc2)c(=O)n4C)cc1OC [Example 5.2, 8-(3,4-Dimethoxy-phenyl)-3-methyl-1-pyridin-3-yl-1,3-dihydro-imidazo[4,5-c]quinolin-2-one] | 7.30 | – | – | 6.63 | −3.9
COc1ncccc1-n1c(=O)n(C)c2cnc3ccc(-c4cnc5c(ccn5C)c4)cc3c21 [Example 1.7, 1-(2-Methoxy-pyridin-3-yl)-3-methyl-8-(1-methyl-1H-pyrrolo[2,3-b]pyridin-5-yl)-1,3-dihydro-imidazo[4,5-c]quinolin-2-one] | 7.53 | – | – | 7.80 | −3.8
CNc1cc(-c2ccc3ncc4c(c3c2)n(-c2ccc(F)nc2C)c(=O)n4C)cnc1CO [Example 7.11, 1-(6-Fluoro-2-methyl-pyridin-3-yl)-8-(6-hydroxymethyl-5-methylamino-pyridin-3-yl)-3-methyl-1,3-dihydro-imidazo[4,5-c]quinolin-2-one] | 7.80 | 7.96 | −5.4 | – | –
CCOc1ccc(-c2ccc3ncc4c(c3c2)n(-c2cccnc2OC)c(=O)n4C)cn1 [Example 1.5, 8-(6-Ethoxy-pyridin-3-yl)-1-(2-methoxy-pyridin-3-yl)-3-methyl-1,3-dihydro-imidazo[4,5-c]quinolin-2-one] | 7.41 | – | – | 6.97 | −3.6
COc1ccc(-c2ccc3ncc4c(c3c2)n(-c2cccnc2)c(=O)n4C)cn1 [Example 5.4, 8-(6-Methoxy-pyridin-3-yl)-3-methyl-1-pyridin-3-yl-1,3-dihydro-imidazo[4,5-c]quinolin-2-one] | 6.82 | – | – | 6.94 | −3.7

Other lines, results leading:

pIC50 [1] | pIC50 (mTOR; read-out: EPK_mTOR/IC50) | HT-Perm logPe pH6.8 [2] | pIC50 (mTOR; read-out: mTOR/IC50) | HT-perm/logPe pH6.8 [2] | Compound
7.30 | 6.60 | −5.9 | – | – | CNC(=O)c1cc(-c2ccc3ncc4c(c3c2)n(-c2ccc(F)nc2C)c(=O)n4C)cnc1N [Example 7.14, 2-Amino-5-[1-(6-fluoro-2-methyl-pyridin-3-yl)-3-methyl-2-oxo-2,3-dihydro-1H-imidazo[4,5-c]quinolin-8-yl]-N-methyl-nicotinamide]
8.09 | 8.22 | −4.1 | – | – | CCNc1cc(-c2ccc3ncc4c(c3c2)n(-c2ccc(C)nc2C)c(=O)n4C)cnc1C [Example 14.6, 1-(2,6-Dimethyl-pyridin-3-yl)-8-(5-ethylamino-6-methyl-pyridin-3-yl)-3-methyl-1,3-dihydro-imidazo[4,5-c]quinolin-2-one]
7.97 | 7.47 | −3.9 | – | – | CNc1ccc(-c2ccc3ncc4c(c3c2)n(-c2ccc(N3CCCC3)nc2C)c(=O)n4C)cn1 [Example 25.1, 3-Methyl-8-(6-methylamino-pyridin-3-yl)-1-(2-methyl-6-pyrrolidin-1-yl-pyridin-3-yl)-1,3-dihydro-imidazo[4,5-c]quinolin-2-one]
7.62 | 7.85 | −4.6 | – | – | CNc1ncc(-c2ccc3ncc4c(c3c2)n(-c2ccc(C)nc2C)c(=O)n4C)cn1 [Example 14.4, 1-(2,6-Dimethyl-pyridin-3-yl)-3-methyl-8-(2-methylamino-pyrimidin-5-yl)-1,3-dihydro-imidazo[4,5-c]quinolin-2-one]
7.51 | 7.32 | −5 | – | – | Cc1nc(N2CC(F)(F)C2)ccc1-n1c(=O)n(C)c2cnc3ccc(-c4cncc(C(C)(C)O)c4)cc3c21 [Example 24.2, 1-[6-(3,3-Difluoro-azetidin-1-yl)-2-methyl-pyridin-3-yl]-8-[5-(1-hydroxy-1-methyl-ethyl)-pyridin-3-yl]-3-methyl-1,3-dihydro-imidazo[4,5-c]quinolin-2-one]
7.39 | 7.32 | −3.8 | – | – | Cc1ccc(-n2c(=O)n(C)c3cnc4ccc(-c5cnc(N(C)C)nc5)cc4c32)c(C)n1 [Example 14.3, 8-(2-Dimethylamino-pyrimidin-5-yl)-1-(2,6-dimethyl-pyridin-3-yl)-3-methyl-1,3-dihydro-imidazo[4,5-c]quinolin-2-one]
7.30 | 6.37 | −4 | – | – | CCOCc1cc(-c2ccc3ncc4c(c3c2)n(-c2ccc(F)nc2C)c(=O)n4C)cnc1N [Example 7.15, 8-(6-Amino-5-ethoxymethyl-pyridin-3-yl)-1-(6-fluoro-2-methyl-pyridin-3-yl)-3-methyl-1,3-dihydro-imidazo[4,5-c]quinolin-2-one]
7.51 | 7.34 | −3.9 | – | – | COc1ccc(-n2c(=O)n(C)c3cnc4ccc(-c5cnc(CO)c(OC)c5)cc4c32)c(C)n1 [Example 11.8, 8-(6-Hydroxymethyl-5-methoxy-pyridin-3-yl)-1-(6-methoxy-2-methyl-pyridin-3-yl)-3-methyl-1,3-dihydro-imidazo[4,5-c]quinolin-2-one]
7.94 | 7.41 | −4.3 | – | – | CNc1ncc(-c2ccc3ncc4c(c3c2)n(-c2ccc(OCCOC)nc2C)c(=O)n4C)cn1 [Example 13.5, 1-[6-(2-Methoxy-ethoxy)-2-methyl-pyridin-3-yl]-3-methyl-8-(2-methylamino-pyrimidin-5-yl)-1,3-dihydro-imidazo[4,5-c]quinolin-2-one]
7.61 | 7.12 | −3.9 | – | – | COCCN(C)c1ccc(-n2c(=O)n(C)c3cnc4ccc(-c5cnc6c(ccn6C)c5)cc4c32)c(C)n1 [Example 15.7, 1-{6-[(2-Methoxy-ethyl)-methyl-amino]-2-methyl-pyridin-3-yl}-3-methyl-8-(1-methyl-1H-pyrrolo[2,3-b]pyridin-5-yl)-1,3-dihydro-imidazo[4,5-c]quinolin-2-one]
7.82 | 7.96 | −3.7 | – | – | CNc1ccc(-c2ccc3ncc4c(c3c2)n(-c2ccc(N(C)CCOC)nc2C)c(=O)n4C)cn1 [Example 15.4, 1-{6-[(2-Methoxy-ethyl)-methyl-amino]-2-methyl-pyridin-3-yl}-3-methyl-8-(6-methylamino-pyridin-3-yl)-1,3-dihydro-imidazo[4,5-c]quinolin-2-one]
